Measurements reported in patent US4346097A, “Method for treating convulsions with pyrazole-4-carboxamide derivatives” (Warner-Lambert Company, priority 1980, dated 1982).

Assays:
[1] = Maximal Electroshock Seizure Test, MES; type: in vivo; details: for PI MES: Protective Index, ratio of TD50 vs ED50 MES
Excerpt: (§1) The term convulsions is intended to mean the characteristic body movements which are associated with the group of chronic central nervous system disorders termed, epilepsies.
2. Maximal Electroshock Seizure Test, MES.
(§2) These procedures are described in E. A. Swinyard, et al., Epilepsia, 19, 409 (1978), which is incorporated herein by reference. The TD50 is defined as the median minimal neurotoxic dose.

Rotorod Test, TD50 = details: in vivo
Excerpt: as §1, §2

[2] = Subcutaneous Pentylenetetrazole Seizure Threshold Test, scMet; type: in vivo; details: for PI scMet: Protective Index, ratio of TD50 vs ED50 scMet; for ED50: sc
Excerpt: The compounds of structural formula I are new chemical substances of value as pharmacological agents for the treatment of convulsions in warm-bloodedanimals. The term convulsions is intended to mean the characteristic body movements which are associated with the group of chronic central nervous system disorders termed, epilepsies. The anticonvulsant activity of representative compounds of formula I was established by the following standard test procedures: […]
3. Subcutaneous Pentylenetetrazole Seizure Threshold Test, scMet.
as §2

| Structure (SMILES) | ED50 [1] | PI MES [1] | TD50 (Rotorod Test, TD50) | PI scMet [2] | ED50 [2] |
| --- | --- | --- | --- | --- | --- |
| Cc1ccccc1NC(=O)c1c(C)nn(C)c1N [5-Amino-1,3-dimethyl-N-(2-methylphenyl)-1H-pyrazole-4-carboxamide] | 25.7 mg/kg | 4.05 | 104 mg/kg | 1.94 | 53.7 mg/kg |
| Cc1nn(C)c(N)c1C(=O)Nc1cccc(Cl)c1 [5-Amino-N-(3-chlorophenyl)-1,3-dimethyl-1H-pyrazole-4-carboxamide] | 47.3 mg/kg | 4.95 | 234 mg/kg | 2.35 | 99.6 mg/kg |
| NC(=O)N1c2ccccc2C=Cc2ccccc21 [CARBAMAZEPINE] | 8.81 mg/kg |  |  |  |  |
| CCC1(c2ccccc2)NC(=O)N(C)C1=O (stereo not shown) [MEPHENYTOIN] | 60.5 mg/kg | 2.54 | 154 mg/kg | 5.05 | 30.4 mg/kg |
